How the values were obtained:
kinin B1 receptor = target: T1, kinin B1 receptor (Homo sapiens, UniProt P46663); assay: umbilical vein, Sar-[D-Phe^8]des-Arg^9-BK-induced contraction; conditions: 1 μM
T1 construct: during the 3-hour incubation period to upregulate the expression of B1; from tissue; host or cells: human umbilical vein rings pre-incubated with interleukin-1β and tumor necrosis factor-α

B2 receptor = target: T2, B2 receptor (Homo sapiens, UniProt P30411); assay: reversibility of antagonism after washout, umbilical vein; conditions: for EC50: BK EC50 (nM)
T2 sequence (P30411 1-391): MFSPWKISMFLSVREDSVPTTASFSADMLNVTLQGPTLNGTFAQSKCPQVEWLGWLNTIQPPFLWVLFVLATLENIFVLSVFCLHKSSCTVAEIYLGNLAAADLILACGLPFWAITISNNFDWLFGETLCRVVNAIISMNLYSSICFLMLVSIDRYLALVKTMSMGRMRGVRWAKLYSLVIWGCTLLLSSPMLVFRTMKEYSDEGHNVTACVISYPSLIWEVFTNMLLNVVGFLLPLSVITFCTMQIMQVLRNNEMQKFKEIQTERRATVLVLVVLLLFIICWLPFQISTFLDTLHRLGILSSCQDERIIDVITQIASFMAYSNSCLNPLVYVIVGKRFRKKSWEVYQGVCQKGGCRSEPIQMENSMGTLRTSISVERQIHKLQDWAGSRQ

Bombesin BB2 = target: T3, Bombesin BB2 (Homo sapiens, UniProt P30550); assay: radioligand binding (Table S2); conditions: [125I] [Tyr4]-bombesin, Human recombinant HEK-293 cells
T3 construct: host or cells: HEK-293 cells

Chemokine CCR1 = target: T4, Chemokine CCR1 (Homo sapiens, UniProt P32246); assay: radioligand binding (Table S2); conditions: [125I] MIP-1α, Human recombinant HEK-293 cells
T4 construct: host or cells: HEK-293 cells

Endothelin ETA = target: T5, Endothelin ETA (Homo sapiens, UniProt P25101); assay: radioligand binding (Table S2); conditions: [125I] Endothelin-1, Human recombinant CHO cells
T5 construct: host or cells: CHO cells

Endothelin ETB = target: T6, Endothelin ETB (Homo sapiens, UniProt P24530); assay: radioligand binding (Table S2); conditions: [125I] Endothelin-1, Human recombinant CHO cells
T6 construct: host or cells: CHO cells

[1] = test system: Glutamate, NMDA, phencyclidine; assay: radioligand binding (Table S2); conditions: [3H] TCP, Wistar rat cerebral cortex
[2] = test system: Glycine, strychnine-sensitive; assay: radioligand binding (Table S2); conditions: [3H] Strychnine, Wistar rat spinal cord
[3] = target: T7, Growth hormone secretagogue (GHS, ghrelin) (Homo sapiens, UniProt Q92847); assay: radioligand binding (Table S2); conditions: [125I] Ghrelin (human), Human recombinant CHO-K1 cells
T7 construct: host or cells: CHO-K1 cells

Histamine H2 = target: T8, Histamine H2 (Homo sapiens, UniProt P25021); assay: radioligand binding (Table S2); conditions: [125I] APT, Human recombinant CHO cells
T8 construct: host or cells: CHO cells
T8 sequence (P25021 whole entry): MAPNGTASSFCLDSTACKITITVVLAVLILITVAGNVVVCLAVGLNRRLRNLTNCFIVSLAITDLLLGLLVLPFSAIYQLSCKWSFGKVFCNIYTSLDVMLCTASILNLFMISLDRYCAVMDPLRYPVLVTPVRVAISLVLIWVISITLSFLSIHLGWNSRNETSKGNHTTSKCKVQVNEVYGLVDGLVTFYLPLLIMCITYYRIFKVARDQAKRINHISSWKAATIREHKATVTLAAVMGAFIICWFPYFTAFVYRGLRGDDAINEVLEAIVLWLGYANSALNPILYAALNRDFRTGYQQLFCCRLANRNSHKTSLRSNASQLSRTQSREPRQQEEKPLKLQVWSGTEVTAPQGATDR

Histamine H3 = target: T9, Histamine H3 (Homo sapiens, UniProt Q9Y5N1); assay: radioligand binding (Table S2); conditions: [3H] Nα-Me-histamine, Human recombinant CHO cells
T9 construct: host or cells: CHO cells
T9 sequence (Q9Y5N1 whole entry): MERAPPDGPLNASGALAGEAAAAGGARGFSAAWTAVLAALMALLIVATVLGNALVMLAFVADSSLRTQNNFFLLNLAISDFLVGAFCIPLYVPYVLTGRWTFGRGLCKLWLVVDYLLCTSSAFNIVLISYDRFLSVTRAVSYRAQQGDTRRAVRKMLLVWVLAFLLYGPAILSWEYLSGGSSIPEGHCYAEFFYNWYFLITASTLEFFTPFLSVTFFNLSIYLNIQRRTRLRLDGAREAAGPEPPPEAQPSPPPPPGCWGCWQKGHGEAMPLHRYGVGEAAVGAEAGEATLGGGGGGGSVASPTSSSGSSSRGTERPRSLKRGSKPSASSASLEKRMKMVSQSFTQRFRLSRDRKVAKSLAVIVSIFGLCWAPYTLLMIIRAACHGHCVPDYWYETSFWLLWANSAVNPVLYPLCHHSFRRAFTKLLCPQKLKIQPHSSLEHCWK

Histamine H4 = target: T10, Histamine H4 (Homo sapiens, UniProt Q9H3N8); assay: radioligand binding (Table S2); conditions: [3H] Histamine, Human recombinant HEK-293 cells
T10 construct: host or cells: HEK-293 cells
T10 sequence (Q9H3N8 whole entry): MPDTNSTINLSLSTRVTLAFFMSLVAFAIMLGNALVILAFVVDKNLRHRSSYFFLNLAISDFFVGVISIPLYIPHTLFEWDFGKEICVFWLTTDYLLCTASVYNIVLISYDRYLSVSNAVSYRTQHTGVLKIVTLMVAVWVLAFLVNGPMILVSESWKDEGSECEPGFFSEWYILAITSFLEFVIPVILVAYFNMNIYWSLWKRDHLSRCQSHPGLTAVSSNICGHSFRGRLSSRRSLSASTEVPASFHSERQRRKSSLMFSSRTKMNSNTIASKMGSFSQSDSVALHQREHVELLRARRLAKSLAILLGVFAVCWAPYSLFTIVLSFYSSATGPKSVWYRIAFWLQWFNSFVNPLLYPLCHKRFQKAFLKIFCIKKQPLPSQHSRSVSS

Melanocortin MC5 = target: T11, Melanocortin MC5 (Homo sapiens, UniProt P33032); assay: radioligand binding (Table S2); conditions: [125I] NDP-α-MSH, Human recombinant CHO cells
T11 construct: host or cells: CHO cells

Monoamino-oxidase MAO-A = target: T12, Monoamino-oxidase MAO-A (Rattus norvegicus, UniProt P21396); assay: radioligand binding (Table S2); conditions: [3H] Ro 41-1049, Rat cerebral cortex
T12 construct: Rat cerebral cortex; from tissue; host or cells: rat cerebral cortex
T12 sequence (P21396 whole entry): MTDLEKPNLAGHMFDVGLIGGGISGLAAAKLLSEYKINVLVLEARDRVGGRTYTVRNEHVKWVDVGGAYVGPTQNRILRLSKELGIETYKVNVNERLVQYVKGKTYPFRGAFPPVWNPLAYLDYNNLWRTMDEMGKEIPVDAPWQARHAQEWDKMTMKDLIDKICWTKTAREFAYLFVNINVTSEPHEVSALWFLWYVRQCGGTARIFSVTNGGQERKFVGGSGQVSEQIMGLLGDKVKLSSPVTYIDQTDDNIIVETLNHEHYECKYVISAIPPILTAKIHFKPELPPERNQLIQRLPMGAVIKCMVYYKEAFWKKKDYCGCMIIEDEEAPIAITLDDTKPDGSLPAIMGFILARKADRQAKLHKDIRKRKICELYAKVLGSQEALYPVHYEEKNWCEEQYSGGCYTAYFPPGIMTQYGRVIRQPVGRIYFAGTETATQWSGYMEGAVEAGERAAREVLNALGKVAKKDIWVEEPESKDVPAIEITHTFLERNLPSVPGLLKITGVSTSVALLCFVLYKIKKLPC

Motilin = Motilin (Homo sapiens, UniProt O43193); assay: radioligand binding (Table S2); conditions: [125I] Motilin, Human recombinant CHO cells
Sequence of Motilin (O43193 whole entry): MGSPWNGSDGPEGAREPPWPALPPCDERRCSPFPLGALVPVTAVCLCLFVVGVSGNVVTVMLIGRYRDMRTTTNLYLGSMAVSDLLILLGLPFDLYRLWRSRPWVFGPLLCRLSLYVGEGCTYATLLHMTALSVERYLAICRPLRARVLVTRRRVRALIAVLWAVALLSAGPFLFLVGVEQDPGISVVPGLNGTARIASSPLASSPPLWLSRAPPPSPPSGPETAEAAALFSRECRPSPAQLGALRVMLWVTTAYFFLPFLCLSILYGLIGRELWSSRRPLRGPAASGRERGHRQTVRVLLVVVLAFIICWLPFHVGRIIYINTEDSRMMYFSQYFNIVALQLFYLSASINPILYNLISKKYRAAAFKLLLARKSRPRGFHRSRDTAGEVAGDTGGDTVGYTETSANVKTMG

[4] = test system: Potassium channel (Ca activated) SKCa channel; assay: radioligand binding (Table S2); conditions: [125I] Apamin, Rat cerebral cortex
Purinergic receptor P2X = assay: radioligand binding (Table S2); conditions: [3H] α,β-MeATP, Rat urinary bladder
Serotonin 5-HT6 = target: T13, Serotonin 5-HT6 (Homo sapiens, UniProt P50406); assay: radioligand binding (Table S2); conditions: [3H] LSD, Human recombinant CHO cells
T13 construct: host or cells: CHO cells

Somatostatin sst1 = Somatostatin sst1 (Homo sapiens, UniProt P30872); assay: radioligand binding (Table S2); conditions: [125I] Tyr11-Somatostatin 14, Human recombinant CHO-S cells
[5] = target: T14, Thyrotropin-releasing hormone TRH1 (Homo sapiens, UniProt P34981); assay: radioligand binding (Table S2); conditions: [3H] Me-TRH, Human recombinant CHO cells
T14 construct: host or cells: CHO cells
T14 sequence (P34981 whole entry): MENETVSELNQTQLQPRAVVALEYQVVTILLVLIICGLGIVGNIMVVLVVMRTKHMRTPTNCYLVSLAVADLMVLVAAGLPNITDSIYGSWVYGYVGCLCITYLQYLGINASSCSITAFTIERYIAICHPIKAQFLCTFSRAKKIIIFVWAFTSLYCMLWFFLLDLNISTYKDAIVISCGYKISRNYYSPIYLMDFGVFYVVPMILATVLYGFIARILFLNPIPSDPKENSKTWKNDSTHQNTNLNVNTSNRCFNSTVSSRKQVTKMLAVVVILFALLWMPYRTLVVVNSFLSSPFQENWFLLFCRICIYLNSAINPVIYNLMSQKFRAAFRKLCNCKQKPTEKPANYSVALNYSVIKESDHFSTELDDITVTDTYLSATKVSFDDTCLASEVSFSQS

PKCε = target: T15, PKCε (Homo sapiens, UniProt Q02156); assay: enzyme assay (Table S2); format: biochemical; conditions: HTRF
T15 construct: host or cells: insect cells
T15 sequence (Q02156 whole entry): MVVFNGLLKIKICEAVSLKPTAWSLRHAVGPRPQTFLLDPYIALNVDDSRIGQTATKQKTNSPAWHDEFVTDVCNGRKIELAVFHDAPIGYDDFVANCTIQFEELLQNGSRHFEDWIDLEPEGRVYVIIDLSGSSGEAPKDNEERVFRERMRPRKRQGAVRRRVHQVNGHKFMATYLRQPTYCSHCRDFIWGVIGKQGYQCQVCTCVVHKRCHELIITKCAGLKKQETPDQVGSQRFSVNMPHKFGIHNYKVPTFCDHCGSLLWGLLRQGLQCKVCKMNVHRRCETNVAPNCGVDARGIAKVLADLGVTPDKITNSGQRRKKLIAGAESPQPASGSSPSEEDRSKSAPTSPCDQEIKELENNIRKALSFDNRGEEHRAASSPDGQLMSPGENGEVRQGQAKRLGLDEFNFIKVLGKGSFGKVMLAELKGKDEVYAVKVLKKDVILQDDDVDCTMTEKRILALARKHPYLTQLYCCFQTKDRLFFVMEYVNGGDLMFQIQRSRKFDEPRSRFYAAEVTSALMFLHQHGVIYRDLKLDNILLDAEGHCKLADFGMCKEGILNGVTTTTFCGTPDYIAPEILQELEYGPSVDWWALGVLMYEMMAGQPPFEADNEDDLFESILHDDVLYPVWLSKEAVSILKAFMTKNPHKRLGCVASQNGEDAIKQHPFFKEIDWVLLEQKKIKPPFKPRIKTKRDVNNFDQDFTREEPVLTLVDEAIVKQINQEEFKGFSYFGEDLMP

[6] = target: T16, Corticotropin-releasing factor CRF1 (Homo sapiens, UniProt P34998); assay: functional assay, cAMP HTRF, CHO cells (Table S2); format: cell-based
T16 construct: expressed in transfected cells; host or cells: CHO cells
T16 sequence (P34998 24-415): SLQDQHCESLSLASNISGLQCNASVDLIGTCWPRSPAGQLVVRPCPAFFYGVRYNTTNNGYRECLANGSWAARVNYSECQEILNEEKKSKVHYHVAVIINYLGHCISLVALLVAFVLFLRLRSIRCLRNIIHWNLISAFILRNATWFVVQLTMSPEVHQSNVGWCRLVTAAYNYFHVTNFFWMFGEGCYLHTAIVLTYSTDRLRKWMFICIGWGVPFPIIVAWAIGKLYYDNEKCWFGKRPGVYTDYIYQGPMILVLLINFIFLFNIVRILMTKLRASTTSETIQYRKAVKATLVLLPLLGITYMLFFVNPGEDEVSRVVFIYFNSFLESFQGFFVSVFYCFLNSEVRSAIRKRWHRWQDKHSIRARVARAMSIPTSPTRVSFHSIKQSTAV

Potassium channel hERG = Potassium channel hERG (Homo sapiens, UniProt Q12809); assay: in vitro
Sequence of Potassium channel hERG (Q12809 whole entry): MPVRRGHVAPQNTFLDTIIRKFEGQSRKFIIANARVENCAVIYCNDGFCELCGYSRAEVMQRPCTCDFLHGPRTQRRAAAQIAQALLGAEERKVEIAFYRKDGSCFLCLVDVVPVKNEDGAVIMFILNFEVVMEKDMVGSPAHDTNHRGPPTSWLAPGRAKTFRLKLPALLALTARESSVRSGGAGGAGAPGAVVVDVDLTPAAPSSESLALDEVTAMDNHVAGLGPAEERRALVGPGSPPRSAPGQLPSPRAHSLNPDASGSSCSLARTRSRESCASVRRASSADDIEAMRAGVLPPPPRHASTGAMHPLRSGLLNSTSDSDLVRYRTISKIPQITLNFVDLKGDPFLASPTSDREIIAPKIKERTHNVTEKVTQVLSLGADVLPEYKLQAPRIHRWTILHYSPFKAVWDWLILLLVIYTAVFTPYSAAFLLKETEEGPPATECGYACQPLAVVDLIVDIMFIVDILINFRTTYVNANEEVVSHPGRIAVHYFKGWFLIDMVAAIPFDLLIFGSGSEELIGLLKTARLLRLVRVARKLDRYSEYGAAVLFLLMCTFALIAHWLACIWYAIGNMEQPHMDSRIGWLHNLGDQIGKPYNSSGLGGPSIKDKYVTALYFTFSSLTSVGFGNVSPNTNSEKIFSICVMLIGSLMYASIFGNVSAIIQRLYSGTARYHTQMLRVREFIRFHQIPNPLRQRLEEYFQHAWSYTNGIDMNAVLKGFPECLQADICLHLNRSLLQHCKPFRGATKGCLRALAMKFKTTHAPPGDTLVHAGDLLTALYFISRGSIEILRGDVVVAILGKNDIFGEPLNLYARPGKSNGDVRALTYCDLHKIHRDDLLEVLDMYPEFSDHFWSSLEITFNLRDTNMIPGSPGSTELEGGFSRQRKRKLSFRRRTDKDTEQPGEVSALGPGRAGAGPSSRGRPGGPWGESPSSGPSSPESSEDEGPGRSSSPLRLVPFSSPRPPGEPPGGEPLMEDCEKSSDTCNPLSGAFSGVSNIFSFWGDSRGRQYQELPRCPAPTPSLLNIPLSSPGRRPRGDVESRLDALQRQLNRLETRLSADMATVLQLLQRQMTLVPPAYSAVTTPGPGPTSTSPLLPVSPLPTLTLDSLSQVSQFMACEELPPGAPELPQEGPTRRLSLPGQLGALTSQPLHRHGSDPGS

Muscarinic M4 = Muscarinic M4 (Homo sapiens, UniProt P08173); assay: radioligand binding (Table S2); conditions: read-out: % Inhibition @ 10 µM
Sequence of Muscarinic M4 (P08173 whole entry): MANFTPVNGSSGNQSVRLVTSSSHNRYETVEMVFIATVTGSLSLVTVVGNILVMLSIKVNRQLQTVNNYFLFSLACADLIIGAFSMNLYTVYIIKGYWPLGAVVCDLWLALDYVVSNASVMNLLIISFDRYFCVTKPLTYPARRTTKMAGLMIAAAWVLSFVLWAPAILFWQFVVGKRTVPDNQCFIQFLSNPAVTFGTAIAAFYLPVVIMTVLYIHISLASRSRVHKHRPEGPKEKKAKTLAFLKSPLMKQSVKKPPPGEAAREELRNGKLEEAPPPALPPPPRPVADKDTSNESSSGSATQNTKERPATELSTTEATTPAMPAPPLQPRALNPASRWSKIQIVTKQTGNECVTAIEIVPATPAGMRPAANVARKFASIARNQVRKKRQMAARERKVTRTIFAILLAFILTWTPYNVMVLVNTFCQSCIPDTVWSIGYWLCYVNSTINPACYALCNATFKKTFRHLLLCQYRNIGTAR

Cc1cc(-c2ncnn2C)c2cccc(OCc3c(Cl)cc(F)cc3[C@H](C)NC(=O)COC(F)F)c2n1 [Compound 3, (S)-N-(1-(3-chloro-5-fluoro-2-((2-methyl-4-(1-methyl-1H-1,2,4-triazol-5-yl)quinolin-8-yloxy)methyl)phenyl)ethyl)-2-(difluoromethoxy)acetamide]
effect on contraction by B1 receptor agonist Sar-[D-Phe^8]des-Arg^9-BK (kinin B1 receptor): failed to antagonize
reversibility of antagonism after washout (B2 receptor; 100 nM): partial or slow reversibility
reversibility of antagonism after washout (B2 receptor; 1 and 10 nM): fully reversible
EC50 (B2 receptor; after washout, 5 h, washout after Compound 3 1 nM, 5 h, vehicle washout 20.8 nM): 22 nM
EC50 (B2 receptor; after washout, 5 h, washout after Compound 3 10 nM, 5 h, vehicle washout 20.8 nM): 38.5 nM
EC50 (B2 receptor; after washout, 5 h, washout after Compound 3 100 nM, 5 h, vehicle washout 11.7 nM): 84.1 nM
EC50 (B2 receptor; antagonist present, 3 h, Compound 3 1 nM, vehicle 3 h 18.7 nM): 67.4 nM
EC50 (B2 receptor; antagonist present, 3 h, Compound 3 10 nM, vehicle 3 h 18.7 nM): 225 nM
EC50 (B2 receptor; antagonist present, 3 h, Compound 3 100 nM, vehicle 3 h 7.5 nM): 713 nM
inhibition at 10 µM (Bombesin BB2): -1.4%
inhibition at 10 µM (Chemokine CCR1): -9.6%
inhibition at 10 µM (Endothelin ETA): -2.1%
inhibition at 10 µM (Endothelin ETB): 7.2%
% Inhibition @ 10 µM [1]: -2%
% Inhibition @ 10 µM [2]: -1%
inhibition at 10 µM [3]: 6%
inhibition at 10 µM (Histamine H2): -26.5%
inhibition at 10 µM (Histamine H3): 6.2%
inhibition at 10 µM (Histamine H4): -2.8%
inhibition at 10 µM (Melanocortin MC5): -9.6%
inhibition at 10 µM (Monoamino-oxidase MAO-A): -1.3%
inhibition at 10 µM (Motilin): 5%
% Inhibition @ 10 µM [4]: 6.3%
% Inhibition @ 10 µM (Purinergic receptor P2X): 6.3%
inhibition at 10 µM (Serotonin 5-HT6): -4.5%
inhibition at 10 µM (Somatostatin sst1): -2%
inhibition at 10 µM [5]: 21.7%
inhibition at 10 µM (PKCε): 6.8%
% of reference agonist response @ 10 µM (agonist effect) ([6]; 10 µM, reference ovine CRF (1 µM)): -2.7%
inhibition at 10 µM ([6]; CHO, read-out: % inhibition of reference agonist response @ 10 µM (antagonist effect), 10 µM, Ovine CRF (10 nM)): 55.7%
IC50 ([6]; Ovine CRF (10 nM), read-out: IC50 (µM), functional antagonism): 10 µM
Kb ([6]; Ovine CRF (10 nM), read-out: Kb (µM), functional antagonism): 3.6 µM
inhibition at 60 min, 10 µM (Potassium channel hERG): 17.8%
inhibition at 10 µM (Muscarinic M4): -1.3%

From article PMC7316994, “In Vitro Pharmacological Profile of a New Small Molecule Bradykinin B2 Receptor Antagonist” (Frontiers in Pharmacology, 2020)
